In article PMC6895213, “Four New Picrotoxane-Type Sesquiterpenes From Dendrobium nobile Lindl” (Frontiers in Chemistry, 2019):

Tests used:
α-glycosidase = α-glycosidase inhibitory activity (PNPG method); assay type: biochemical; details: yeast enzyme EC 3.2.1.20
Procedure: Optical rotations were measured on a MCP 5100 modular compact polarimeter (Anton Paar, America). IR spectra were taken on a Nicolet 380 FT-IR instrument (Thermo, USA) as KBr discs. NMR spectra were recorded on a Bruker Avance III 500 MHz NMR spectrometer (Bruker, German). ESIMS and HRESIMS were recorded with amaZon SL (Bruker) or Compact QqTOF (Bruker). ECD spectra were measured by APL Chiascan (Applied Photophysics Ltd., England). Semi-preparative HPLC was carried out using a C18 column (Cosmosil-pack, 10 × 250 mm, 5 μm, 4 mL/min, Nacalai Tesque). C18 gel (20–45 μm, Fuji SilysiSa Chemical Co., Ltd., Greenville, NC, UA), Silica gel (60–80, 200–300 mesh, Qingdao Marine Chemical Co., Ltd., Qingdao, China), Sephadex LH-20 (Merck, Kenilworth, NJ, USA) were used for column chromatograghy. α-glycosidase (Sigma-Aldrich, UA) used for the bioactivity was derived from yeast and its EINECS (EC) unmber is 3.2.1.20.
The method optimized by Jong et al. ([2007]) was performed in vitro to test the α-glucosidase inhibitory activity of compounds 1–8. Acarbose was used as positive control.
(§1) Compounds 1–8 were tested for inhibitory activity against α-glycosidase using the PNPG method and for cytotoxic effects on SGC-7901, K562, A549, BEL-7402, and Hela cell lines using the MTT method (See Supplementary Table 1 in the Supplementary Material).

SGC-7901 cell line = assay: MTT cytotoxicity assay, SGC-7901; assay type: cell-based; details: MTT method, SGC-7901 cells
Procedure: (§2) The MTT method optimized by Mosmann ([1983]) was performed in vitro to test the cytotoxic activity of compounds 1–8. Cisplatin was used as a positive control.
as §1

Hela cell line = assay: MTT cytotoxicity assay, Hela; assay type: cell-based; details: MTT method, Hela cells
Procedure: as §2, §1

K562 cell line = assay: MTT cytotoxicity assay, K562; assay type: cell-based; details: MTT method, K562 cells
Procedure: as §2, §1

A549 cell line = assay: MTT cytotoxicity assay, A549; assay type: cell-based; details: MTT method, A549 cells
Procedure: as §2, §1

BEL-7402 cell line = assay: MTT cytotoxicity assay, BEL-7402; assay type: cell-based; details: MTT method, BEL-7402 cells
Procedure: as §2, §1

[1] = tested on: activated murine macrophage-like cell line RAW 264.7; set-up: method as in Zhang et al., 2007b; details: activated RAW 264.7 cells; ref Zhang et al., 2007b; cited from earlier work

Compound	IC50 (α-glycosidase) [µM]	IC50 (SGC-7901 cell line) [µM]	IC50 (Hela cell line) [µM]	IC50 (K562 cell line) [µM]	IC50 (A549 cell line) [µM]	IC50 (BEL-7402 cell line) [µM]	IC50 (SGC-7901 cell line; Homo sapiens) [µM]	IC50 (Hela cell line; Homo sapiens) [µM]	IC50 (K562 cell line; Homo sapiens) [µM]	IC50 (A549 cell line; Homo sapiens) [µM]	melting point [°C]	IC50 (BEL-7402 cell line; Homo sapiens) [µM]	inhibitory effects on NO production [1]
C[C@H]1O[C@H](O[C@H]2[C@H](O)[C@@H](O)[C@@H](O[C@H]3[C@H](O)[C@@H](O)C(O)O[C@@H]3CO)O[C@@H]2CO)[C@H](O)[C@@H](O)[C@@H]1N[C@H]1C=C(CO)[C@@H](O)[C@H](O)[C@H]1O (stereo partly shown) [Acarbose, reference compound]	720												
N.N.[Cl][Pt][Cl] [Cisplatin, reference compound]		4.11	11.3	3.08	1.93	4.02							
CC(C)C1C2OC(=O)C1C1CC=CC1(C)C2NC=O (stereo not shown) [Compound 1, Dendroterpene A]	> 1000						> 50	> 50	> 50	> 50	185 to 186	> 50	
CC(C)C1C2OC(=O)C1C1(O)CC=CC1(C)C2NC=O (stereo not shown) [Compound 2, Dendroterpene B]	> 1000						> 50	> 50	> 50	> 50	200 to 201	> 50	
CC(C)C1C2OC(=O)C1C1CCC3C(=O)OC2C31C (stereo not shown) [Compound 3, Dendroterpene C]	970						> 50	> 50	> 50	> 50		> 50	
CC(C)C1C2OC(=O)C1C1CCC3(O)C(=O)OC2C13C (stereo not shown) [Compound 4, Dendroterpene D]	> 1000						> 50	> 50	> 50	> 50	167 to 168	> 50	
COc1cccc(CCc2cc(OC)c(O)c3c2C(Cc2cccc(OC)c2)c2cc(O)c(O)c(OC)c2O3)c1 (stereo not shown) [Compound 5, nobilin E]	30						17.3	22.2	10.4	29		20.1	exhibited inhibitory effects on NO production
COc1cccc(CC2C3=C(Oc4c2cc(O)c(O)c4OC)C(=O)c2cc(O)c4cc(O)ccc4c2C3=O)c1 (stereo not shown) [Compound 6, dendrocandin V]	680						> 50	> 50	28.2	> 50		> 50	
CC(=O)/C=C/[C@@]1(O)C(C)=CC(=O)CC1(C)C [Compound 7, S(+)-dehydrovomifoliol]	> 1000						> 50	> 50	> 50	> 50		> 50	
Oc1ccc(CCOCCc2ccc(O)cc2)cc1 [Compound 8, di-[2-(4-hydroxyphenyl)] ethyl ether]	300						> 50	> 50	> 50	> 50		> 50	
